How the values were obtained:
[1] = photochromic response rates on an optical bench (test squares); assay type: physicochemical; settings: for ΔOD @ SATURATION: UV exposure continued for 20 minutes, same test squares; for ΔOD @ SATURATION / ΔOD/MIN SENSITIVITY: 75° F. (23.9° C.); for ΔOD/MIN SENSITIVITY: measured over first five seconds of UV exposure, expressed per minute, 1.5 x 10^-3 molal in BPA 2EO DMA / poly(ethyleneglycol) 600 dimethacrylate polymer; for Bleach Rate (T1/2): time for absorbance of activated form to reach one half the highest absorbance, room temperature (75° F., 23.9° C.), after removal of activating light
Procedure: Testing was done with the photochromic naphthopyrans of the Examples incorporated into polymeric samples by the following method. The quantity of naphthopyran calculated to yield a 1.5 time 10^-3 molal solution was added to a flask containing 50 grams of a monomer blend of 4 parts ethoxylated bisphenol A dimethacrylate (BPA 2EO DMA), 1 part poly(ethyleneglycol) 600 dimethacrylate, and 0.033 weight percent 2,2'-azobis (2-methyl propionitrile) (AIBN). The naphthopyran was dissolved into the monomer blend by stirring and gentle heating, if necessary. After a clear solution was obtained, it was poured into a flat sheet mold having the interior dimensions of 2.2 mm×6 inches (15.24 cm)×6 inches (15.24 cm). The mold was sealed and placed in a horizontal air flow, programmable oven set to increase the temperature from 40° C. to 95° C. over a 5 hour interval, hold the temperature at 95° C. for 3 hours and then lower it to 60° C. for at least 2 hours before the end of the curing cycle. After the mold was opened, the polymer sheet was cut using a diamond blade saw into 2 inch (5.1 centimeters) test squares.
The photochromic test squares prepared in Part A were tested for photochromic response rates on an optical bench. […] The bench was fitted with a 150 watt Xenon arc lamp, a remote controlled shutter, a copper sulfate bath acting as a heat sink for the arc lamp, a Schott WG-320 nm cut-off filter which removes short wavelength radiation; neutral density filter(s) and a sample holder in which the square to be tested was inserted. A collimated beam of light from a tungsten lamp was passed through the square at a small angle normal to the square. After passing through the square, the light from the tungsten lamp was directed through a photopic filter attached to a detector. The photopic filter passes wavelengths such that the detector mimics the response of the human eye. The output signals from the detector(s) were processed by a radiometer.
Change in optical density (ΔOD) was determined by inserting a test square in the bleached state into the sample holder, adjusting the transmittance scale to 100%, opening the shutter from the Xenon lamp to provide ultraviolet radiation to change the test square from the bleached state to an activated (i.e., darkened) state, measuring the transmittance in the activated state; and calculating the change in optical density according to the formula Δ OD=log(100/%Ta) where %Ta is the percent transmittance in the activated state and the logarithm is to the base 10.
(§1) The Δ OD/Min, which represents the sensitivity of the photochromic compound's response to UV light, was measured over the first five (5) seconds of UV exposure, then expressed on a per minute basis. The saturation optical density (OD) was taken under identical conditions as the Δ OD/Min, except UV exposure was continued for 20 minutes for the examples in Table 1. The lambda max reported in Table 1 is the wavelength in the visible spectrum at which the maximum absorption of the activated (colored) form of the photochromic compound in a diethylene glycol bis(allyl carbonate) composition occurs.

[2] = lambda max of the activated (colored) form in the visible spectrum; assay type: physicochemical; settings: activated form in a diethylene glycol bis(allyl carbonate) composition
Procedure: as §1, with “occurs. The Bleach Rate (T 1/2) is the time interval in seconds for the absorbance of the activated form of the naphthopyran in the test squares to reach one half the highest absorbance at room temperature (75° F., 23.9° C.) after removal of the source of activating light.” for “occurs.”

Structure (SMILES) | ΔOD @ SATURATION [1] | ΔOD/MIN SENSITIVITY [1] | Bleach Rate (T1/2) [1] [min] | LAMBDA MAX (VISIBLE) [2] [nm]
COc1ccc(C2(c3ccc(OC)cc3)C=Cc3c(-c4cccn4C)c(OC(C)=O)c4ccccc4c3O2)cc1 [Example 1, 2,2-bis(4-methoxyphenyl)-5-(N-methylpyrrol-2-yl)-6-acetoxy-2H-naphtho[1,2-b]pyran] | 0.25 | 0.16 ΔOD/MIN | 1.23 | 513
COc1ccc(C2(c3ccc(OC)cc3)C=Cc3c(-c4ccc(OC)cc4OC)c(OC(C)=O)c4ccccc4c3O2)cc1 [Example 2, 2,2-bis(4-methoxyphenyl)-5-(2,4-dimethoxyphenyl)-6-acetoxy-2H-naphtho[1,2-b]pyran] | 0.55 | 0.15 ΔOD/MIN | 4.13 | 511
COc1ccc(C2(c3ccc(OC)cc3)C=Cc3c(Sc4ccccc4)c(O)c4ccccc4c3O2)cc1 [Example 3, 2,2-bis(4-methoxyphenyl)-5-phenylthio-6-hydroxy-2H-naphtho[1,2-b]pyran] | 1.76 | 0.34 ΔOD/MIN | > 10 | 516
COc1ccc(C2(c3ccc(OC)cc3)C=Cc3c(Sc4ccccc4)c(OC(C)=O)c4ccccc4c3O2)cc1 [Example 4, 2,2-bis(4-methoxyphenyl)-5-phenylthio-6-acetoxy-2H-naphtho[1,2-b]pyran] | 0.23 | 0.22 ΔOD/MIN | 0.7 | 516
COc1ccc(C2(c3ccc(OC)cc3)C=Cc3c(Cl)c(OC(C)=O)c4ccccc4c3O2)cc1 [Example 5, 2,2-bis(4-methoxyphenyl)-5-chloro-6-acetoxy-2H-naphtho[1,2-b]pyran] | 0.07 | 0.08 ΔOD/MIN | 0.9 | 462
COc1ccc(C2(c3ccc(OC)cc3)C=Cc3c(C)c(OC(C)=O)c4ccccc4c3O2)cc1 [Example 6, 2,2-bis(4-methoxyphenyl)-5-methyl-6-acetoxy-2H-naphtho[1,2-b]pyran] | 0.37 | 0.14 ΔOD/MIN | 2 | 506
Oc1c(Sc2ccccc2)c2c(c3ccccc13)OC1(C=C2)C2CC3CC(C2)CC1C3 (centres unmarked) [Example 7, 2,2'-spiroadamantylene-5-phenylthio-6-hydroxy-2H-naphtho[1,2-b]pyran] | 0.47 | 0.15 ΔOD/MIN | 3.08 | 462
CC(=O)Oc1c(Sc2ccccc2)c2c(c3ccccc13)OC1(C=C2)C2CC3CC(C2)CC1C3 (centres unmarked) [Example 8, 2,2'-spiroadamantylene-5-phenylthio-6-acetoxy-2H-naphtho[1,2-b]pyran] | 0.04 | 0.10 ΔOD/MIN | 1.13 | 459
COc1c(C)c2c(c3ccccc13)OC1(C=C2)C2CC3CC(C2)CC1C3 (centres unmarked) [Example 9, 2,2'-spiroadamantylene-5-methyl-6-methoxy-2H-naphtho[1,2-b]pyran] | 0.17 | 0.12 ΔOD/MIN | 2.55 | 462
COc1ccc(C2(c3ccc(OC)cc3)C=Cc3c(C(O)(c4ccccc4)c4ccccc4)c(O)c4ccccc4c3O2)cc1 [Example 10, 2,2-bis (4-methoxyphenyl)-5-diphenylmethylol-6-hydroxy-2H-naphtho[1,2-b]pyran] | 0.32 | 0.05 ΔOD/MIN | > 13.3 | 482
COc1ccc(C2(c3ccc(OC)cc3)C=Cc3c(C(O)(c4ccccc4)c4ccccc4)c(OC)c4ccccc4c3O2)cc1 [Example 11, 2,2-bis(4-methoxyphenyl)-5-diphenylmethylol-6-methoxy-[2H]-naphtho[1,2-b]pyran] | 0.19 | 0.10 ΔOD/MIN | 1.42 | 467

Source: US5658501A, “Substituted naphthopyrans” (Transitions Optical, Inc., priority 1995, dated 1997)
